{"source": "patent US12024504B2", "about": "“1-methyl-1H-pyrazol-3-yl derivatives for use in the treatment of neovascular diseases” (EXONATE LIMITED, priority 2021, dated 2024)", "key": {"[1]": {"test_system": "choroidal neovascularisation", "assay": "Laser-induced choroidal neovascularisation (CNV)", "format": "in vivo, C57/B6 mice", "method": "6-8 week-old female C57/B6 mice were anesthetized with an intraperitoneal injection of a mixture of 50 mg/kg ketamine and 0.5 mg/kg medetomidine. The pupils were immediately dilated by topical (eyedrop) application with a dilator such as 5% phenylephrine hydrochloride and 1% tropicamide. Four photocoagulation lesions were delivered with a green Merilas 532α laser (450 mW, 130 ms) between the “large” retinal vessels in clear space with no vessels in a peripapillary distribution at a distance of 1-2 disc-diameters in each eye. Only clean laser lesions with a subretinal bubble at the time of treatment were included in the study. Immediately following laser photocoagulation the animals were given topical eye drops of candidate compounds twice daily at 2 μg/mL, 0.2 μg/mL or 0.066 μg/mL or eye drop formulation control as indicated (10 μL, eyes held for 30 seconds to prevent animal wiping drop away). Experiments were performed with an initial eye drop formulation containing 1% hydroxypropyl methyl cellulose, 0.2% tyloxapol, 3.4% dextrose, 0.006% benzalkonium chloride, and 0.025% ethylenediaminetetraacetic acid with 1% DMSO in PBS and data were confirmed in a second eye drop formulation containing 7% poly-oxyl-40-stearate and 4% dextrose in PBS.\nAfter one week, mice were anesthetized with an intraperitoneal injection of a mixture of 50 mg/kg ketamine and 0.5 mg/kg medetomidine. […]"}, "[2]": {"assay": "Porcine scleral permeability (modified Ussing chamber)", "format": "in vitro ADME", "conditions": "pig, pH 7.4, porcine excised eye tissue, 10 μg/mL compound on donor side", "method": "Scleral permeability was measured using a modified Ussing chamber assembly in the initial eye drop formulation containing 1% hydroxypropyl methyl cellulose, 0.2% tyloxapol, 3.4% dextrose, 0.006% benzalkonium chloride, and 0.025% ethylenediaminetetraacetic acid with 1% DMSO in PBS (pH 7.4). Porcine excised eye tissues were mounted in the chambers such that the episcleral side faced the donor chamber and the retinal side faced the receiver chamber. The chambers were filled with equal volumes of eye drop formulation, with (donor side) or without (receiver side) 10 μg/mL compound. After 24 hours tissue was removed from the chamber and the receiver side (“vitreous”) sampled. Tissue was dissected into sclera, choroid/RPE, and retina and homogenised. A tracer (SPHINX7; WO 2015/159103) was added, and tissue extracted by acetonitrile extraction as described in Batson et al (2017). Compounds were then analysed by mass spectrometry as described in Batson et al (2017).\nTo determine whether compounds could get across the sclera of a larger animal, porcine sclera was clamped between two chambers and compounds were added to the sclera with eye drop formulation added to the bottom chamber and compounds added to the top chamber. After 24 hours, the fluid from the bottom chamber (vitreous) and the retinal tissue was isolated and compounds purified by methanol or acetonitrile extraction and HPLC."}}, "data": [{"smiles": "Cn1ccc(CN2CCN(c3ccc(C(F)(F)F)cc3NC(=O)c3ccc(C4CCOCC4)o3)CC2)n1", "note": "[Compound 1, N-(2-(4-((1-methyl-1H-pyrazol-3-yl)methyl)piperazin-1-yl)-5-(trifluoromethyl)phenyl)-5-(tetrahydro-2H-pyran-4-yl)furan-2-carboxamide]", "values": [{"measurement": "Anti-angiogenic activity on lesion size versus reference compounds", "setting": "[1]; laser-induced mouse model of CNV, FIG. 7", "value": "same anti-angiogenic activity on lesion size as reference compounds"}, {"measurement": "Inhibition of choroidal neovascularisation", "setting": "[1]; mouse, eye drops twice daily at 0.066 μg/mL, FIG. 7b", "value": "significantly inhibited"}, {"measurement": "Papp at 24 h, 10 μg/mL", "setting": "[2]", "value": 0.067, "unit": "×10⁻⁶ cm/s"}]}]}
